{
  "source": "patent US11224666B2",
  "about": "“Gadolinium contrast agents, scavenging methods, and scavenging system” (Boston Scientific Scimed, Inc., priority 2018, dated 2022)",
  "test": "example reaction demonstrating the sequestration reaction (strained alkyne with azide, in vitro, followed by NMR)",
  "conditions": "allowed to react with azide-fluor 488 (representing a capture substrate), NMR tube",
  "data": [
    {"smiles": "OC[C@H]1[C@H]2CCC#CCC[C@@H]12", "note": "[(1R,8S,9s)-Bicyclonon-4-yn-9-ylmethanol]", "values": [
      {"measurement": "course of the sequestration (click) reaction", "result": "complete before a nuclear magnetic resonance (NMR) tube containing the reaction constituents could be inserted into the probe"}
    ]}
  ]
}
